Paper PMC11063903, “Engineering a human P2X2 receptor with altered ligand selectivity in yeast” (The Journal of Biological Chemistry, 2024)
Changes are numbered by the printed parent chain.

What was measured:
[1] = biological target: T1, P2X2 F301W (Homo sapiens, UniProt Q9UBL9, F301W); experiment: Fast GCaMP-mScarletI assay in yeast, P2X2 F301W; format: cell-based; details: for Bottom, best fit value / Hillslope, best fit value / Top, best fit value: four-parameter logistic fit of ΔF/ΔT; for Bottom, best fit value / Hillslope, best fit value / Top, best fit value / EC50: n = 3; for EC50: four-parameter logistic fit, unit inferred, unit M, read-out: EC50, best fit value
T1 construct: expressed in transfected cells; host or cells: S. cerevisiae BY4741 background
T1 sequence (Q9UBL9 1-471 F301W): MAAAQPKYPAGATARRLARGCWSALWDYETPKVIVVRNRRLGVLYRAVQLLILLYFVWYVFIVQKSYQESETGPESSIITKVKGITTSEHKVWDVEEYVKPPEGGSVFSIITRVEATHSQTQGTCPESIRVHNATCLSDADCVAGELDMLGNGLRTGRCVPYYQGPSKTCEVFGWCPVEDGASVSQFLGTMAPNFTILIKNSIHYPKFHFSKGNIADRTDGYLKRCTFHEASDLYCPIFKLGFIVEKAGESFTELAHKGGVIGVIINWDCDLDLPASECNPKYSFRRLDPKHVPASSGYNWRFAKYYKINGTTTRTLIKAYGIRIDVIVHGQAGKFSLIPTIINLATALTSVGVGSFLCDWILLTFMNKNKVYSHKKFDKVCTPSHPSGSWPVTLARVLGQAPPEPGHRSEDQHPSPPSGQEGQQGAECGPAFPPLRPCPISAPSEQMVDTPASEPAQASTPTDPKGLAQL
Description: (§1) Figure 4 Unnatural-ligand gating in LBD libraries.A, WT P2X2 was tested with 1 mM ATP, 500 μM AMP-PNP, and compared to ATP with the broken receptor (K81C K83C) control with 1 mM ATP in the fast GCaMP-mScarletI assay (n = 3). […] B, heat map summarizing AMP-PNP signaling (ΔF/ΔT, fast GCaMP-mScarletI assay) in the site-saturation libraries (n = 2–3). All values are normalized to WT P2X2 with saturating amounts of AMP-PNP (500 μM) and therefore represent low signal (ΔF/ΔT) compared to the ATP ligand. C, F301W, F303Y, and A304W were combinatorially combined and tested against the WT, K81C K83C broken P2X2, and the single mutant clones with both ATP (1 mM, black) and AMP-PNP (500 μM, pink). […] Values here represent signal onset and are not normalized to a positive control (n = 2–5). D–K, dose response of each P2X variant with both ATP (black) and AMP-PNP (pink) in the fast GCaMP-mScarletI assay (n = 3). Statistics were performed via one-way ANOVA with Dunnett’s multiple comparisons with to the “broken” K81C K83C negative control. ∗ represents a p value ≤0.05, ∗∗ is p ≤ 0.01, and ∗∗∗ is p ≤ 0.001.
(§2) Given that the yeast-based screen seemed to recapitulate important structural and functional features of human ion channel function, we hypothesized that it might be possible to engineer new P2X2 functionalities in yeast, including new ligand specificity. […] We screened our 133-member library in the presence of 500 μM AMP-PNP (Fig. S7). While the AMP-PNP signal was uniformly low, three substitutions (F301W, F303Y, and A304W) increased signaling 2.5 to 2.8 times relative to the negative control receptor (Figs. 4B, and S7, D, F, and G). To gain a more complete view of the properties of these mutants, dose–response curves were generated with ATP and AMP-PNP (Fig. 4, D–G, and Table S2).
(§3) GCaMP assays were performed as follows. P2X2 GCaMP strains were designed with a bi-cistronic reporter, in which the GCaMP protein was followed by a 2A peptide and a mScarletI reporter ([53]). The co-translated mScarletI was designed to act as a control for plasmid loss, GCaMP breakage via nonsense mutation, and contamination. […] P2X2-GCaMP strains were cultured and induced as previously described. Samples were induced for 24 h to allow for the accumulation of the mature GCaMP protein. Cells were washed three times in 0.1 M MES/Tris buffer and resuspended with MES/Tris with supplemental calcium. Cells were loaded onto a black, clear bottom microplate and imaged on a FlexStation3 plate reader. Samples were imaged in “flex” mode. Samples were imaged for 48 s at an interval of 1.6 s. Fluorescence was measured with an excitation at 485 nm, and emission 525 nm. At the 21 s mark, 100 μl ligand solution was transferred to the cells. For strains with mScarlet, fluorescence was read with excitation 570 nm/emission 610 nm. Slopes were calculated from the last 6 points of measurement and were normalized to the positive control samples. Any replicate in which the mScarlet value was measured to be over 2 standard deviations less than the mean for that set was discarded from further analysis.
(§4) For multiple comparisons in the site-saturation screening data, One-way ANOVA with Dunnett’s multiple comparisons test was performed where every sample was compared to the “broken” negative control. Significance was plotted where ∗ represents a p value ≤0.05, ∗∗ is p ≤0.01, and ∗∗∗ is p ≤0.001. Dose–response curves were fit with nonlinear regression software using a four-parameter logistic curve. All statistics were calculated and plotted in Graphpad Prism software.

[2] = biological target: T2, P2X2 F303Y (Homo sapiens, UniProt Q9UBL9, F303Y); experiment: Fast GCaMP-mScarletI assay in yeast, P2X2 F303Y; format: cell-based; details: for Bottom, best fit value / Hillslope, best fit value / Top, best fit value: four-parameter logistic fit of ΔF/ΔT; for Bottom, best fit value / Hillslope, best fit value / Top, best fit value / EC50: n = 3; for EC50: four-parameter logistic fit, unit inferred, unit M, read-out: EC50, best fit value
T2 construct: expressed in transfected cells; host or cells: S. cerevisiae BY4741 background
T2 sequence (Q9UBL9 1-471 F303Y): T1 sequence (Q9UBL9 1-471 F301W) with W301F, F303Y
Description: as §1, §2, §3, §4

[3] = AMP-PNP dose-response, Fig. 4D-G, Table S2

Q: What does the source list for Nc1ncnc2c1ncn2[C@@H]1O[C@H](COP(=O)(O)OP(=O)(O)OP(=O)(O)O)[C@@H](O)[C@H]1O [ATP]?
A: Bottom, best fit value [1]: -0.0044; Hillslope, best fit value [1]: 0.94; Top, best fit value [1]: 37.70; EC50 [1]: 5.04 µM; Bottom, best fit value [2]: 0.80; Hillslope, best fit value [2]: 2.18; Top, best fit value [2]: 68.07; EC50 [2]: 3.6 µM

Q: For Nc1ncnc2c1ncn2[C@@H]1O[C@H](COP(=O)(O)OP(=O)(O)NP(=O)(O)O)[C@@H](O)[C@H]1O [AMP-PNP], which “activity compared to the wild-type” value [1, 3] is on record?
A: 5.28 fold

Q: What about the “Bottom, best fit value” [1] of the same compound?
A: 0.4523

Q: And the “Hillslope, best fit value” [1]?
A: 2.135

Q: And the “Top, best fit value” [1]?
A: 5.973

Q: And the EC50 [1]?
A: 214 µM

Q: What about the “activity compared to the wild-type” value [2, 3] of the same compound?
A: 1.89 fold

Q: And the “Bottom, best fit value” [2]?
A: 0.2603

Q: And the “Hillslope, best fit value” [2]?
A: 0.8857

Q: And the “Top, best fit value” [2]?
A: 2.141

Q: And the EC50 [2]?
A: 328 µM
